Reference: patent publication US10407421B2, “Bicyclic aryl monobactam compounds and methods of use thereof for the treatment of bacterial infections” (priority 2016, dated 2019)
Counter-ions that a name gives are not always drawn.

Tests used:
Format in all cases: cell-based
Settings in all cases: in the presence of β lactamase inhibitor Relebactam 4 μg/mL; 22 hours at 35±2° C.; lowest concentration inhibiting 95% of growth (OD600)
[1] = tested on: Pseudomonas aeruginosa expressing AmpC (CL5701); test: Growth inhibitory concentration (OD600), Pseudomonas aeruginosa CL5701
Experimental: (§1) Antibiotic Activity: Determination of Growth Inhibitory Concentration
(§2) The concentrations of compounds required to inhibit the growth of various strains of bacteria were determined in an assay that assessed bacterial growth by measuring optical density at 600 nm (OD600). The bacterial strains tested included the clinical strains Escherichia coli expressing NDM-1 (CLB30016), Klebsiella pneumoniae expressing KPC-1 (CL6569), Acinetobacter baumannii expressing TEM-1, AmpC, and Oxa-24/40 (CL6188) and Pseudomonas aeruginosa expressing AmpC (CL5701). All compounds were tested in the presence of a β lactamase inhibitor (BLi, Relebactam) in 384-well microplates. The clinical strains were stored as frozen single use stocks, thawed and diluted into 1.1× cation-adjusted Mueller-Hinton II broth to achieve approximately 2×10^5 CFU/mL. Test compounds were dissolved in DMSO and diluted 1:50 in the assay, resulting in a final concentration range of 100 μM to 0.098 μM. […] At the end of the incubation, absorbance at 600 nm was determined using a spectrophotometer. Inhibition was quantitated by identifying the lowest concentration of test compound that was required to inhibit 95% of the growth of the bacteria. The results for Examples 1-73 are reported in Table I, expressed as the concentration of compound that inhibited 95% of bacterial growth (Minimum Inhibitory Threshold Concentration; MITC95).

[2] = tested on: Acinetobacter baumannii expressing TEM-1, AmpC, and Oxa-24/40 (CL6188); test: Growth inhibitory concentration (OD600), Acinetobacter baumannii CL6188
Experimental: as §1, §2

[3] = tested on: Klebsiella pneumoniae expressing KPC-1 (CL6569); test: Growth inhibitory concentration (OD600), Klebsiella pneumoniae CL6569
Experimental: as §1, §2

[4] = tested on: Escherichia coli expressing NDM-1 (CLB30016); test: Growth inhibitory concentration (OD600), Escherichia coli CLB30016
Experimental: as §1, §2

In the case of `C[n+]1c2ccc(OC[C@H](O/N=C(\C(=O)N[C@@H]3C(=O)N(OS(=O)(=O)[O-])C3(C)C)c3csc(N)n3)C(=O)O)cc2cn1C[C@H](O)CN` [Example 51, (S)-3-((Z)-2-(((S)-2-((2-((R)-3-amino-2-hydroxypropyl)-1-methyl-2H-indazol-1-ium-5-yl)oxy)-1-carboxyethoxy)imino)-2-(2-aminothiazol-4-yl)acetamido)-2,2-dimethyl-4-oxoazetidin-1-yl Sulfate], the “PA_CL5701 MITC95” value [1] was 12.5 µM, the “AB_CL6188 MITC95” value [2] was 6.25 µM and the “KP_CL6569 MITC95” value [3] was 0.78 µM. For the same compound, the “EC_CLB30016 MITC95” value [4] was 25 µM.
